Measured values: patent US20110251063A1, “HETEROCYCLIC DIKETONE DERIVATIVES WITH HERBICIDAL ACTION” (priority 2008, published 2011)

What was measured:
[1] = system: AMARE; experiment: greenhouse post-emergence herbicidal activity against AMARE; format: in vivo, Amaranthus retroflexus; details: scale 0 to 100
Source text: (§1) The seeds of the test plants were sown separately for each species. For the post-emergence treatment, the test plants were first grown to a height of 3 to 15 cm, depending on the plant habit, and then treated with the active compounds which had been suspended or emulsified in water. For this purpose, the test plants were either sown directly and grown in the same containers, or they were first grown separately as seedlings and transplanted into the test containers a few days prior to treatment. Depending on the species, the plants were kept at 10-25° C. or 20-35° C. The test period extended over 2 to 4 weeks. During this time, the plants were tended, and their response to the individual treatments was evaluated. Evaluation was carried out using a scale from 0 to 100. 100 means no emergence of the plants, or complete destruction of at least the aerial moieties, and 0 means no damage, or normal course of growth. A good herbicidal activity is given at values of at least 70 and a very good herbicidal activity is given at values of at least 85. The plants used in the greenhouse experiments belonged to the following species: [table]

[2] = system: CHEAL; experiment: greenhouse post-emergence herbicidal activity against CHEAL; format: in vivo, Chenopodium album; details: scale 0 to 100
Source text: as §1

[3] = system: ABUTH; experiment: greenhouse pre-emergence herbicidal activity against ABUTH; format: in vivo, Abutilon theophrasti; details: application rate 3.0 kg/ha, scale 0 to 100
Source text: (§2) The seeds of the test plants were sown separately for each species. For the pre-emergence treatment, the active compounds, which had been suspended or emulsified in water, were applied directly after sowing by means of finely distributing nozzles. The containers were irrigated gently to promote germination and growth and subsequently covered with transparent plastic hoods until the plants had rooted. This cover caused uniform germination of the test plants, unless this has been impaired by the active compounds. Depending on the species, the plants were kept at 10-25° C. or 20-35° C. The test period extended over 2 to 4 weeks. During this time, the plants were tended, and their response to the individual treatments was evaluated. Evaluation was carried out using a scale from 0 to 100. 100 means no emergence of the plants, or complete destruction of at least the aerial moieties, and 0 means no damage, or normal course of growth. A good herbicidal activity is given at values of at least 70 and a very good herbicidal activity is given at values of at least 85. The plants used in the greenhouse experiments belonged to the following species: [table]

[4] = system: SETIT; experiment: greenhouse pre-emergence herbicidal activity against SETIT; format: in vivo, Setaria italica; details: application rate 3.0 kg/ha, scale 0 to 100
Source text: as §2

[5] = system: SETFA; experiment: greenhouse post-emergence herbicidal activity against SETFA; format: in vivo, Setaria faberi; details: application rate 3.0 kg/ha, scale 0 to 100
Source text: as §1

[6] = system: GALAP; experiment: greenhouse post-emergence herbicidal activity against GALAP; format: in vivo, Galium aparine; details: application rate 0.25 kg/ha, scale 0 to 100
Source text: as §1

[7] = system: ALOMY; experiment: greenhouse post-emergence herbicidal activity against ALOMY; format: in vivo, Alopecurus myosuroides; details: application rate 3.0 kg/ha, scale 0 to 100
Source text: as §1

Compound | herbicidal activity against AMARE ([1]; application rate 0.5 kg/ha) | herbicidal activity against CHEAL ([2]; application rate 0.5 kg/ha) | herbicidal activity against ABUTH [3] | herbicidal activity against SETIT [4] | herbicidal activity against SETFA [5] | herbicidal activity against GALAP [6] | herbicidal activity against AMARE ([1]; application rate 0.25 kg/ha) | herbicidal activity against CHEAL ([2]; application rate 0.25 kg/ha) | herbicidal activity against ALOMY [7]
COC(=O)C(=C(OC(C)=O)c1ncccc1OC(C)=O)c1ccccc1C(F)(F)F [I-2, methyl 3-acetoxy-3-(3-acetoxypyridin-2-yl)-2-(2-trifluoromethylphenyl)acrylate] | Very good | Very good |  |  |  |  |  |  | 
COC(=O)C(C(=O)c1ncccc1O)c1ccccc1C(F)(F)F (stereo not drawn) [I-1, methyl 3-(3-hydroxypyridin-2-yl)-3-oxo-2-(2-trifluoromethylphenyl)propionate] |  |  | good (A good herbicidal activity is given at values of at least 70) | very good (a very good herbicidal activity is given at values of at least 85) | very good (a very good herbicidal activity is given at values of at least 85) | very good (a very good herbicidal activity is given at values of at least 85) | Very good | Very good | good (A good herbicidal activity is given at values of at least 70)
